Results: patent publication US20050096360A1, “Inhibitors of semicarbazide-sensitive amine oxidase (SSAO) and VAP-1 mediated adhesion useful for treatment of diseases” (priority 2003, published 2005)
Structures can show the parent of a compound that is named as a salt.

What was measured:
[1] = tested on: LPS-induced endotoxemia in C57B1/6J female mice; assay: LPS-induced endotoxemia and LPS/D-galactosamine shock; type: in vivo; details: for survival, first 14 hours: LPS 2 mg/kg + D-galactosamine 300 mg/kg i.p., PBS 40%
Method: Eight female mice per group received i.p. injections of 5 mg/kg LPS. […] Dexamethasone (3 mg/kg) was administered i.p. at the same time. Blood was collected 1, 2, 4, and 8 hours after LPS injection and circulating TNF-α and IL-6 levels were measured by ELISA (R&D Systems). Asterisk * indicates p<0.01.
Survival data for the first 14 hours is presented.
In sepsis exposure of endothelial cells of all organs to elevated levels of LPS and inflammatory cytokines leads to upregulation of adhesion molecules and chemokines, which results in an increase in the tethering, rolling and transmigration of leukocytes (Pawlinski R. et al. (2004) Blood 103:1342). LPS-induced endotoxemia is a well-characterized model of systemic inflammation and thus can be used to investigate the putative role of SSAO inhibition in these inflammatory mechanisms. Sepsis was induced in C57B1/6J female mice by i.p. administration of 5 mg/kg of LPS. […] Dexamethasone was administered i.p, at a concentration of 3 mg/kg 1 hr prior to disease induction. Blood was drawn from the retroorbital plexus of anesthetized animals and sera was collected and frozen until time of cytokine measurements. IL-1β, TNF-α, and IL-6 concentrations were determined by ELISA using commercial kits (R&D Systems, Minneapolis, Minn.) according to the manufacturer's instructions. […] Data were analyzed with GraphPad Prism software (San Diego, Calif.) by Dunnett's test following analysis of variance. […] 2 mg/kg LPS together with 300 mg/kg D-galactosamine (GalN, Sigma), both dissolved in PBS, were administered to mice by i.p. injection. At the indicated time points animals from the different therapeutic groups received 200 μl of vehicle (PBS) or 30 mg/kg (2-phenylallyl)hydrazine by oral administration.

[2] = molecular target: T1, SSAO activity in rat aorta and lung (Rattus norvegicus, UniProt O08590); assay: In vivo inhibition of SSAO after single oral dose, radioactive assay; details: 4 hrs after treatment
T1 construct: the animals were euthanized and their aortas and lungs removed and frozen in liquid nitrogen; from tissue; host or cells: aorta and lung of female Sprague Dawley rats
T1 sequence (O08590 1-763): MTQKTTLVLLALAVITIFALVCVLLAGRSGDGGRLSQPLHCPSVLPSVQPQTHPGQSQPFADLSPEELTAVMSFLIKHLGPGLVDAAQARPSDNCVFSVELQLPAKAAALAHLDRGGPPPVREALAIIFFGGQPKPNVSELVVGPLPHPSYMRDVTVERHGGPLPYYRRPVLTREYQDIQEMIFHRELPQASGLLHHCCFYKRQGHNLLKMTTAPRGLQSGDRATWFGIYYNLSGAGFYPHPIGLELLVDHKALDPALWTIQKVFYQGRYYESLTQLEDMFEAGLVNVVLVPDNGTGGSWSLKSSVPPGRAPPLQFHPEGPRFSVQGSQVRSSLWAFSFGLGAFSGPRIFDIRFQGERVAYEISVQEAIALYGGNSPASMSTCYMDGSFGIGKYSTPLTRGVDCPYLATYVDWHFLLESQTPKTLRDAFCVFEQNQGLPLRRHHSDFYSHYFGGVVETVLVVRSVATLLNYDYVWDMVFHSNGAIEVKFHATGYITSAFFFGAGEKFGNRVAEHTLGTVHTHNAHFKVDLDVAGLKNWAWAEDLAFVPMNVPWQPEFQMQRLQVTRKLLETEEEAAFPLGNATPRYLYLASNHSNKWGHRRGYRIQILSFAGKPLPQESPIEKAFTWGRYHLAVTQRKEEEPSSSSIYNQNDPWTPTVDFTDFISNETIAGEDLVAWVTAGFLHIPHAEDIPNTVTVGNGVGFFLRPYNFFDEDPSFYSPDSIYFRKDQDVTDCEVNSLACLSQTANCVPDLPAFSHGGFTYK
Method: In vivo inhibition of SSAO was assessed in rat aorta and lungs, two of the tissues where SSAO activity is highest. Six week old female Sprague Dawley rats were administered 0, 0.1, 1, 10 and 50 mg/kg of the compound of example 8 in 2.5 ml/kg PBS by oral gavage. Four hours after compound administration the animals were euthanized and their aortas and lungs removed and frozen in liquid nitrogen. Tissues were homogenized in 0.1 M potassium phosphate pH 7.8 buffer (30 ml/g for aorta and 20 ml/g for lung) and centrifuged at 1000×g for 15 min. Supernatants were collected and used in the radioactive assay following the protocol described by Lizcano J. M. et al. (1998) Biochem. J. 331:69. Enzymatic reactions were initiated by incubating a 200 μl aliquot of the tissue homogenate with 20 μl of 0.4 mM ^14C-labeled benzylamine substrate (6 mCi/mmol specific activity, Pharmacia) for 30 min at RT. The assay was stopped by addition of 100 μl of 2 M citric acid, the assay volume was extracted with 5 ml toluene:ethyl acetate (1:1) containing 0.6% (w/v) 2,5-diphenyloxdazole (PPO), and an aliquot of the organic layer was counted by liquid scintillation. […] These inhibitors were added to the tissue supernatant prior to addition of benzylamine.

[3] = 50 mg/kg orally 60 min prior to 5 mg/kg LPS i.p.

| SMILES | levels of circulatory IL-6 [1, 3] | levels of circulatory TNF-α [1, 3] | survival, first 14 hours ([1]; 30 mg/kg oral at 0 and 8 hours (2×)) | survival, first 14 hours ([1]; 30 mg/kg oral once (1×)) | ED50, in vivo inhibition of SSAO activity in aorta ([2]; rat aorta) | ED50, in vivo inhibition of SSAO activity in lung ([2]; rat lung) |
| --- | --- | --- | --- | --- | --- | --- |
| C=C(CNN)c1ccccc1 [Example 2, Hydrochloride] | significantly reduced | significantly reduced | 80% | 60% |  |  |
| C=C(CNN)c1ccc(F)cc1.Cl [Example 8, N-[2-(4′-fluorophenyl)-allyl]-hydrazine Hydrochloride] |  |  |  |  | 5 mg/kg | 0.72 mg/kg |
